Reference: patent publication US20180051316A1, “DETECTION OF NUCLEIC ACID POLYMERASE CONFORMATIONAL CHANGES USING A NANOTUBE” (priority 2014, published 2018)
Where “and” joins values, the source holds several entries; their conditions need not be identical. Identical values can stand only once. Entries after “also recorded” stand apart in the source; their conditions may differ. Like-named read-outs stand apart in the source and are kept apart here. Marks after values point to notes of the source that are not given here.

Assays:
[1] = biological target: T1, DNA polymerase I (Klenow Fragment) (Escherichia coli, UniProt P00582, C907S/D355A/E357A/L790C); format: biochemical; conditions: for k: k=(<τopen>+<τclosed>)^−1; for <τclosed> / <τopen>: native dNTP 10 μM, analog 100 μM, average ± standard deviation; for τopen events encompassed by single exponential fit / τopen events deviating from the single exponential fit: poly(dC)42; for τopen events encompassed by single exponential fit: more than 50 s of polymerization data; for direction of ΔI(t) excursions: poly(dC)42 template; for direction of current spike ΔI per base incorporation: KF processing poly(dA)42; for frequency of ΔI(t) excursions relative to dGTP: complementary template-primer; for time constant of second exponential fit to tail of τopen distribution: poly(dC)42 template (FIG. 3B)
T1 construct: Single copies of the Klenow Fragment (KF) of DNA polymerase I were attached to single-walled carbon nanotube devices; made in house; host or cells: E. coli BL21(DE3)
Method: In embodiments, SWCNT-FETs are fabricated and functionalized with a single-cysteine variant of exonuclease-deficient KF (D355A/E357A/L790C/C907S). […] Attachment of KF to SWCNT-FETs is accomplished by soaking the devices in a solution of N-(1-pyrenyl)maleimide (1 mM in ethanol, 30 min), followed by incubation with KF (300 nM KF in a standard KF activity buffer of 20 mM Tris, 50 mM NaCl, 10 mM MgCl2, 100 μM TCEP, pH 8.0). […] Such devices are referred to simply as KF nanocircuits.
In embodiments, homopolymeric templates poly(dA)42, poly(dT)42, poly(dG)42, or poly(dC)42 mixed with complementary dNTP analogs are used for detecting conformational change of a polymerase, e.g., DNA polymerase. In embodiments, each template is fused to an M13 priming site and mixed with an M13 forward primer in a 1:1 stoichiometric ratio; for hybridization, the mixture is heated in a thermal cycler to 95° C. for 5 to 10 min followed by cooling to 65° C. then further cooling with a gradient of 5° C. every five min until reaching room temperature. In embodiments, KF nanocircuits are immersed in activity buffer with the annealed template-primer at 100 nM concentrations. Native or analog dNTPs are added to the buffer in excess, ensuring Vmax conditions for KF catalysis.
In embodiments, measurements consist of monitoring the source-drain current, I(t), through the SWCNT-FET while the attached KF molecule interacted with its surrounding environment. […] In embodiments, I(t) fluctuations are amplified, digitized at 100 kHz, and stored as uninterrupted, 600 s. Between measurements, the KF nanocircuits may be rinsed twice with activity buffer, incubated in buffer for 5 min, then rinsed twice with buffer before introducing another nucleotide and template-primer.
SWCNT FETs were fabricated and functionalized with a single cysteine variant of exonuclease-deficient KF. […] [20,21]
For each measurement, dNTPs were chosen to complement the homopolymeric templates poly(dA)42, poly(dT)42, poly(dG)42, and poly(dC)42. Each template was fused to an M13 priming site and mixed with an M13 forward primer in a 1:1 stoichiometric ratio; for hybridization, the mixture was heated to 95° C. for 5 to 10 minutes followed by cooling to room temperature. SWCNT FETs were immersed in a standard DNA Pol I activity buffer (20 mM Tris, 50 mM NaCl, 10 mM MgCl2, 100 μM TCEP, pH 8.0) with the template-primer hybrid at 100 nM concentration. Native or analog dNTPs were added to the buffer in excess, ensuring Vmax conditions for KF.
Measurements consisted of monitoring the source-drain current I(t) of a SWCNT FET while the attached KF molecule interacted with its surrounding environment.

KF = biological target: T2, KF (Escherichia coli, UniProt P00582, C907S/D355A/E357A/L790C); format: biochemical; conditions: 100 μM analog, 25° C., 2 h
T2 construct: Single copies of the Klenow Fragment (KF) of DNA polymerase I were attached to single-walled carbon nanotube devices; made in house; host or cells: E. coli BL21(DE3)
Method: Polymerization products with dNTP analogs and the A/T incorporation template (FIG. 8A) or the G/C incorporation template (FIG. 8B) were electrophoresed on a 5% high-resolution agarose gel. […] After visualization, the image colors were inverted, then changed to black and white.
Positive control reactions contained KF (1 μM), dNTPs or dNTP analogs (100 μM), and A/T or G/C incorporation template-primer (5 μM) in 10 mM Tris, 50 mM NaCl, 10 mM MgCl2, 1 mM DTT, pH 7.9. Reactions to test dNTP analog incorporation contained 100 μM analog in place of its native dNTP, and negative control reactions omitted either the analog or its native dNTP. Reactions were kept at 25° C. for 2 h in a thermal cycler before electrophoresis on a 5% high resolution agarose gel (FIG. 8B).

[2] = complementary homopolymeric template

T2 sequence (P00582 324-928 D355A/E357A/L790C/C907S): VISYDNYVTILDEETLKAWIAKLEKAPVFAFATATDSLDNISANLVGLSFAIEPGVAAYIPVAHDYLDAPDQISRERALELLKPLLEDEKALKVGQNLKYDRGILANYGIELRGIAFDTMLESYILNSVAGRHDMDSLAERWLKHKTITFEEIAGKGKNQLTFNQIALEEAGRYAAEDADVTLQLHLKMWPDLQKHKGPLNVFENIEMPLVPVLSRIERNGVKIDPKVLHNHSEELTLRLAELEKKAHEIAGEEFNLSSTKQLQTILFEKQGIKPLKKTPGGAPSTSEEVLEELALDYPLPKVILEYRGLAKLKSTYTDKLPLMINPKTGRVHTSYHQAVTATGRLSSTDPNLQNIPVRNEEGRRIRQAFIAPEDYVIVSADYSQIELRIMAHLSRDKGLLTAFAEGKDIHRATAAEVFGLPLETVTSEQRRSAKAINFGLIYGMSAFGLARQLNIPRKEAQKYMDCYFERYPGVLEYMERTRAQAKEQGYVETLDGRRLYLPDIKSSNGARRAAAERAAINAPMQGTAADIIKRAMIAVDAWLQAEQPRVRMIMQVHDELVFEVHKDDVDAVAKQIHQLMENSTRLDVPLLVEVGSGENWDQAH
T1 sequence (P00582 324-928 D355A/E357A/L790C/C907S): as above

Nc1ccn([C@H]2C[C@H](O)[C@@H](COP(=O)(O)OP(=O)(O)OP(=O)(O)O)O2)c(=O)n1 [dCTP]
k ([1]; template poly(dG)42): 23.2 ± 3.2 s⁻¹ | <τclosed> ([1]; template poly(dG)42): 0.35 ± 0.20 ms | <τopen> ([1]; template poly(dG)42): 42.8 ± 5.0 ms

Nc1ncnc2c1ncn2[C@H]1C[C@H](O)[C@@H](COP(=O)(O)OP(=O)(O)OP(=O)(O)O)O1 [dATP]
k ([1]; template poly(dT)42): 16.8 ± 0.4 s⁻¹ | <τclosed> ([1]; template poly(dT)42): 0.34 ± 0.18 ms | <τopen> ([1]; template poly(dT)42): 58.9 ± 1.2 ms

Nc1nc2c(ncn2[C@H]2C[C@H](O)[C@@H](COP(=O)(O)OP(=O)(O)OP(=O)(O)O)O2)c(=O)[nH]1 [dGTP]
average KF processing rate k for dNTP incorporation [1, 2]: 41 s⁻¹ | τopen events encompassed by single exponential fit [1]: > 90% | direction of ΔI(t) excursions [1]: negative ΔI(t) excursions | k ([1]; template poly(dC)42): 24.3 ± 4.3 s⁻¹ | <τclosed> ([1]; template poly(dC)42): 0.40 ± 0.20 ms | <τopen> ([1]; template poly(dC)42): 40.8 ± 6.0 ms

Cc1cn([C@H]2C[C@H](O)[C@@H](COP(=O)(O)OP(=O)(O)OP(=O)(O)O)O2)c(=S)[nH]c1=O [2-thio-dTTP, 2-thio-2′-deoxythimidine-5′-triphosphate]
incorporation into dsDNA, native counterpart omitted (KF; A/T incorporation template): incorporated opposite the template base A | direction of current spike ΔI per base incorporation [1]: positive current spikes ΔI>0 | average KF processing rate k for dNTP incorporation [1, 2]: 16 s⁻¹ | enzyme closure time τclosed compared to native dNTPs [1, 2]: no difference | rate of incorporation compared with native dNTPs [1, 2]: slightly faster; also recorded: approximately the same | k ([1]; template poly(dA)42): 16.3 ± 0.9^b 1/s | <τclosed> ([1]; template poly(dA)42): 0.23 ± 0.14^b ms | <τopen> ([1]; template poly(dA)42): 61.1 ± 3.2^b ms

Cc1cn([C@H]2C[C@H](O)[C@@H](COP(O)(=S)OP(=O)(O)OP(=O)(O)O)O2)c(=O)[nH]c1=O (stereo partly drawn) [α-thio-dTTP]
incorporation into dsDNA, native counterpart omitted (KF; A/T incorporation template): incorporated opposite the template base A | average KF processing rate k for dNTP incorporation [1, 2]: 7 s⁻¹ | k ([1]; template poly(dA)42): 6.6 ± 0.3 s⁻¹ | <τclosed> ([1]; template poly(dA)42): 0.29 ± 0.13 ms | <τopen> ([1]; template poly(dA)42): 152.1 ± 6.6 ms

Nc1ncnc2c1ncn2[C@H]1C[C@H](O)[C@@H](COP(O)(=S)OP(=O)(O)OP(=O)(O)O)O1 (stereo partly drawn) [α-thio-dATP]
incorporation into dsDNA, native counterpart omitted (KF; A/T incorporation template): incorporated opposite the template base T | effect of lower analog concentration on DNA polymerization ([1]; 10 μM analog instead of 100 μM, poly(dT)42 template): did not affect DNA polymerization | average KF processing rate k for dNTP incorporation [1, 2]: 7 s⁻¹ | k ([1]; template poly(dT)42): 6.8 ± 0.4 s⁻¹ | <τclosed> ([1]; template poly(dT)42): 0.38 ± 0.21 ms | <τopen> ([1]; template poly(dT)42): 145 ms and 145.9 ± 8.4 ms

Nc1nc(Cl)c2ncn([C@H]3C[C@H](O)[C@@H](COP(=O)(O)OP(=O)(O)OP(=O)(O)O)O3)c2n1 [6-Cl-2APTP, 2-amino-6-Cl-purine-2′-deoxyriboside-triphosphate]
incorporation into dsDNA, native counterpart omitted (KF; A/T incorporation template): incorporated opposite the template base T | incorporation into dsDNA, native counterpart omitted (KF; G/C incorporation template): incorporated opposite the template base C | average KF processing rate k for dNTP incorporation [1, 2]: 20 s⁻¹ | enzyme closure time τclosed compared to native dNTPs [1, 2]: no difference | rate of incorporation compared with native dNTPs [1, 2]: compared most favorably to the slowest rates observed for native dGTP incorporation; also recorded: more quickly than native dATP | τopen relative to native dNTP (times longer) [1, 2]: about twice as long | frequency of ΔI(t) excursions relative to dGTP [1]: two to three times less frequently | direction of ΔI(t) current fluctuations ([1]; complementary template-primers): positive current fluctuations | direction of current spikes ([1]; heterogeneous substrates, nucleotide mixtures (FIG. 5A, 5C)): positive current spikes | direction of ΔI(t) signals ([1]; opposite both poly(dC)42 and poly(dT)42 templates): inverted amplitude | rate of ΔI(t) excursions relative to dGTP ([1]; opposite poly(dC)42): 80% | τopen events deviating from the single exponential fit [1]: Approximately twenty-five percent | τopen events encompassed by single exponential fit [1]: ≈ 75% | direction of ΔI(t) excursions [1]: Positive ΔI(t) excursions | time constant of second exponential fit to tail of τopen distribution [1]: 200 ms | k ([1]; template poly(dC)42): 19.7 ± 0.6 s⁻¹ | <τclosed> ([1]; template poly(dC)42): 0.20 ± 0.12 ms | <τopen> ([1]; template poly(dC)42): 50.5 ± 1.4 ms | <τopen> ([1]; template poly(dC)42, listed as 6-Cl-dGTP): 50 ± 1 ms

Nc1ccn([C@H]2C[C@H](O)[C@@H](COP(O)(=S)OP(=O)(O)OP(=O)(O)O)O2)c(=O)n1 (stereo partly drawn) [α-thio-dCTP]
incorporation into dsDNA, native counterpart omitted (KF; G/C incorporation template): incorporated opposite the template base G | average KF processing rate k for dNTP incorporation [1, 2]: 15 s⁻¹ | k ([1]; template poly(dG)42): 14.5 ± 1.0 s⁻¹ | <τclosed> ([1]; template poly(dG)42): 0.33 ± 0.19 ms | <τopen> ([1]; template poly(dG)42): 68.8 ± 4.6 ms

Nc1ccn([C@H]2C[C@H](O)[C@@H](COP(=O)(O)OP(=O)(O)OP(=O)(O)O)O2)c(=S)n1 [2-thio-dCTP]
incorporation into dsDNA, native counterpart omitted (KF; G/C incorporation template): incorporated opposite the template base G | enzyme closure time τclosed compared to native dNTPs [1, 2]: no difference | rate of incorporation compared with native dNTPs [1, 2]: slightly faster; also recorded: approximately the same | k ([1]; template poly(dG)42): 30.6 ± 1.2^b 1/s | <τclosed> ([1]; template poly(dG)42): 0.41 ± 0.15^b ms | <τopen> ([1]; template poly(dG)42): 32.3 ± 1.1^b ms

Nc1nc2c(ncn2[C@H]2C[C@H](O)[C@@H](COP(O)(=S)OP(=O)(O)OP(=O)(O)O)O2)c(=O)[nH]1 (stereo partly drawn) [α-thio-dGTP]
incorporation into dsDNA, native counterpart omitted (KF; G/C incorporation template): incorporated opposite the template base C | average KF processing rate k for dNTP incorporation [1, 2]: 15 s⁻¹ | increase of <τopen> relative to native dNTP [1, 2]: 56% | τopen relative to native dNTP (times longer) [1, 2]: approximately 2.5 | frequency of ΔI(t) excursions relative to dGTP [1]: two to three times less frequently | τopen events deviating from the single exponential fit [1]: Approximately twenty-five percent | τopen events encompassed by single exponential fit [1]: ≈ 75% | time constant of second exponential fit to tail of τopen distribution [1]: 200 ms | k ([1]; template poly(dC)42): 15.7 ± 0.7 s⁻¹ | <τclosed> ([1]; template poly(dC)42): 0.21 ± 0.15 ms | <τopen> ([1]; template poly(dC)42): 63 ± 3 ms and 63.6 ± 2.8 ms

Cc1cn([C@H]2C[C@H](O)[C@@H](COP(=O)(O)OP(=O)(O)OP(=O)(O)O)O2)c(=O)[nH]c1=O [dTTP, deoxythymidine triphosphate]
direction of current spike ΔI per base incorporation [1]: negative current spike ΔI<0 | k ([1]; template poly(dA)42): 14.3 ± 0.5 s⁻¹ | <τclosed> ([1]; template poly(dA)42): 0.33 ± 0.12 ms | <τopen> ([1]; template poly(dA)42): 69.6 ± 2.3 ms
